In patent US7582602B2, “Hirulog-like peptide and gene therapy” (priority 2000, dated 2009):
Entries after “also recorded” stand apart in the source; their conditions may differ.

How the values were obtained:
[1] = human, in vivo; cited from earlier work
aPTT in rabbits = format: in vivo; details: HLP treated rabbits
Experimental: (§1) Influence of HLP on coagulation and haemorrhage. The levels of aPTT and microvascular bleeding time is determined in atherosclerotic rabbits receiving HLP, heparin, hirulog-1 or saline. The effects of optimized HLP treatment on coagulation and haemorrhage is also be examined in a group of uninjured rabbits on regular diet (n=10). The levels of aPTT is determined in blood withdrawn at 15 minutes after the start of the infusions using MLA Coagamate XM system in Haematology Laboratory. Microvascular bleeding time is determined by bleeding from a cut on ear at 1 minutes after the initiation of infusion as previously described (Blajchman et al, 1979). Incidence of bleeding complications in rabbits with various treatments is recorded. Autopsy is applied to every animal, including unexpected death, to examine the sign of haemorrhage in various organs and tissues.
Restenosis is responsible for the 30-40% long term failure rate following coronary revascularization. Thrombin inhibitors have been considered as one type of potential drug for the prevention of restenosis. […] The experiment was designed to examine the effect of HLP on restenosis of carotid arteries in atherosclerostic rabbits. Right carotid arteries of male New Zealand rabbits were subjected to air dessication. […]

α-thrombin = biological target: T1, α-thrombin (Homo sapiens, UniProt P00734); assay: Inhibition of enzymatic activity of thrombin (spectrozyme substrate); format: biochemical; details: spectrozyme as substrate, relative to hirulog-1
T1 construct: using α-thrombin and spectrozyme (American Diagnostica Inc., Greenwich, Conn.) as a substrate for thrombin
Source text: HLP keeps the sequence of the active sites of hirulog-1. The amino-terminal tail of HLP contains a region which is homology to a distal portion of the extracellular domain of the thrombin receptor. This region of HLP is structurally distinct from hirulog-19-20 (or HLP20-31) which aims the anion binding exosite of thrombin (Carmeliet P et al, 1997). HLP provides double-site of inhibition on the binding of thrombin to the thrombin receptor, which can more effectively reduce the activation of the […] and the cellular effects of thrombin. In addition, the amino-terminal sequence of HLP can affect the interaction of the inhibitor with the active site of thrombin in a manner different from hirulog-1. This structural difference between HLP and hirulog-1 on their amino terminal can partially explain the lower inhibition of HLP on coagulation. The amino terminal of HLP can be slowly cleaved by thrombin after the formation of complex with thrombin as hirulog-1 (Buchanan M R et al, 1999), which prevents the complete consumption of thrombin.

[2] = Induction of antibodies in rabbits; details: rabbit, in vivo
Experimental: Relationship between HLP concentrations and vascular response. The relationship between plasma concentrations and the anti-restenosis effect of HLP is analysed. Polyclonal antibodies against HLP-KLH conjugate were raised in rabbits by the applicants group. The antibodies specifically recognize HLP in plasma proteins using Western blotting analysis. A competitive immunoassay was developed to measure plasma levels of HLP. Relationship between the effect of HLP on restenosis and its blood concentrations is analysed, which helps evaluate the efficacy of HLP and the design of a proper regimen for HLP treatment to prevent restenosis.
Effect of HLP on immune reactions. Since HLP is a peptide, it potentially induces immune reactions. HLP is a weak antigen. […] The possibility of HLP induces immune reactions in rabbits has not been excluded. Blood is withdrawn four weeks or six months after angioplasty and treatment with HLP, its analogues or saline, and determine the levels of serum C-reactive protein (Clinical Chemistry). Antibodies against HLP in blood are detected by immunodiffusion. Allergic reaction to HLP is monitored during and after the treatment.

[3] = Bleeding complications and side effects in rabbits; format: in vivo; details: HLP 0.8 mg/kg/h for four hours
Experimental: as §1
Impact of HLP on liver, kidney and myeloid functions. Peripheral blood is withdrawn before sacrifice from ear vein of normal or atherosclerotic rabbits with and without treatments for analysing complete blood counts, serum albumin, alanine transaminase and blood urea nitrogen (analysed in Dept of Clinical Chemistry) to determine the influence of HLP on liver, kidney and myeloid functions. HLP concentrations in blood is analysed to examine the relationship between blood concentrations and possible toxic effects of HLP. […]

[4] = Activated partial thromboplastin time (aPTT) in rats; format: in vivo; details: for aPTT (second): mean±SD, n=4
Experimental: Quantitative thrombin time (QTT) and activated partial thromboplastin time (aPTT): Plasma levels of hirulog-1 were estimated using QTT as previously described (Safian R D et al, 1990). Synthesized hirulog-1 (>90% of purity) was used as standard. The levels of aPTT in plasma were analyzed using a MLA 1000C Coagamate XM system in Haematology Laboratory, Health Sciences Centre, Winnipeg.
(§2) The levels of aPTT in plasma were analyzed using MLA 1000C Coagamate XM system in Haematology Laboratory, Health Sciences Centre, Winnipeg. For the evaluation of bleeding time, 1 mm of tail tip was removed using a razor blade. Resultant wound was gently blotted with filter paper immediately after the cut and each 30-second thereafter until bleeding stopped. Periods between cutting and no blood blotted onto filter paper were defined as bleeding time (Ishiwata S et al, 1997, 20).

[5] = Tail bleeding time in rats; format: in vivo; details: for tail bleeding time during treatment versus control or basal levels: i.v. infusion
Experimental: as §2

[6] = Haemorrhage, toxicity, liver and kidney function in rats; format: in vivo
[7] = system: hirulog-like peptide (HLP)
baboon aortic SMC = assay: Thrombin-induced 3H-thymidine incorporation assay; format: cell-based; details: thrombin 10 U/ml
Experimental: Baboon aortic SMCs (seed cells provided by Dr. A. W. Clowes, University of Washington, Seattle) were grown as previously described (Ishiwata S et al, 1999) and seeded in 12-well plates to sub-confluence. Sub-confluent cells were incubated with serum-free medium for 48 hours. Quiescent SMCs were stimulated with medium containing 1% fetal calf serum and 10 U/ml of thrombin in the absence and presence of HLP for 4 hours. The incubation was continued following the replacement of fresh medium supplemented with 10% serum in the absence of thrombin or its inhibitor for 14 hours. Finally, SMCs were incubated with 0.1 μCi/ml of 3H-thymidine (NEN, Boston, Mass.) in medium containing 10% of serum for 6 hours. At the end of the incubation, the cells were thoroughly washed with PBS then 5% ice-cold trichloroacetic acid, and harvested in 0.25 N NaOH (Safian R D et al, 1990). Radioactivity in aliquots of cell lysate was analyzed in scintillation counter. 3H-Thymidine incorporation was assessed by radioactivity in cell lysates following adjustment with cellular proteins in each well.

[8] = balloon injured rats, heparin 50 U/kg/h, hirulog-1 1 mg/kg/h, HLP 1.6 mg/kg/h [HLP(1.6)], 5 minutes after start of infusion
[9] = rats, 6 months after HLP treatment
[10] = tail, heparin 50 U/kg/h, hirulog-1 1 mg/kg/h, HLP 1.6 mg/kg/h [HLP(1.6)], 10 minutes after initiation of infusion, mean±SD, n=4
[11] = rats, 6 months after HLP 1.6 mg/kg/h for 4 hours

Sequence of hirulog-like peptide (HLP) (chain, as listed by the source): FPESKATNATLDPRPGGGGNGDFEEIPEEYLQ

In the case of hirudin, the “frequency of major bleeding” value [1] is given as 6%-7% and the “incidence of major bleeding complications at non-cranial sites” value [1] is given as 7%.
For CC[C@H](C)[C@H](NC(=O)[C@H](CCC(=O)O)NC(=O)[C@H](CCC(=O)O)NC(=O)[C@H](Cc1ccccc1)NC(=O)[C@H](CC(=O)O)NC(=O)CNC(=O)[C@H](CC(N)=O)NC(=O)CNC(=O)CNC(=O)CNC(=O)CNC(=O)[C@@H]1CCCN1C(=O)[C@H](CCCNC(=N)N)NC(=O)[C@@H]1CCCN1C(=O)[C@H](CC(=O)O)NC(=O)[C@H](CC(C)C)NC(=O)[C@@H](NC(=O)[C@H](C)NC(=O)[C@H](CC(N)=O)NC(=O)[C@@H](NC(=O)[C@H](C)NC(=O)[C@H](CCCCN)NC(=O)[C@H](CO)NC(=O)[C@H](CCC(=O)O)NC(=O)[C@@H]1CCCN1C(=O)[C@@H](N)Cc1ccccc1)[C@@H](C)O)[C@@H](C)O)C(=O)N1CCC[C@H]1C(=O)N[C@@H](CCC(=O)O)C(=O)N[C@@H](CCC(=O)O)C(=O)N[C@@H](Cc1ccc(O)cc1)C(=O)N[C@@H](CC(C)C)C(=O)N[C@@H](CCC(N)=O)C(=O)O [HLP], the “aPTT in rabbits versus saline controls” value (aPTT in rabbits) was “did not significantly change; also recorded: not significantly prolonged”, the “Ki on the enzymatic activity of thrombin, compared with hirulog-1” value (α-thrombin) was “two orders of magnitude greater; also recorded: two orders of magnitude higher” and the “antigenicity / induction of detectable antibodies in rabbits” value [2] was “weak antigen”. The “HLP treated rabbits that suffered from bleeding complications” value [3] was “None”, the “aPTT (second)” value ([4]; HLP 3.2 mg/kg/h [HLP(3.2)], 5 minutes after start of infusion) was 19.80 ± 1.65++xx second and the “aPTT (second)” value [4, 8] was 20.80 ± 3.24++xx second. The “aPTT / coagulation activity during treatment versus control or basal levels” value ([4]; rats, i.v. infusion) was “close to that infused with saline; also recorded: did not cause haemorrhage, the elongation of aPTT; also recorded: not significantly different from vehicle controls; also recorded: did not significantly differ; also recorded: did not prolong aPTT or bleeding time; also recorded: did not significantly alter coagulation activity”, the “tail bleeding time 6 months after treatment versus controls” value [5, 9] was “No significant change; also recorded: No significant difference” and the “tail bleeding time during treatment versus control or basal levels” value ([5]; rats) was “did not cause haemorrhage, the elongation of aPTT or bleeding time; also recorded: not significantly different from vehicle controls; also recorded: did not prolong aPTT or bleeding time”. The “Bleeding time (min)” value ([5]; tail, HLP 3.2 mg/kg/h [HLP(3.2)], 10 minutes after initiation of infusion, mean±SD, n=4) was 16.50 ± 1.58+x min, the “Bleeding time (min)” value [5, 10] was 16.37 ± 1.55+x min and the “toxic effect in rats” value ([6]; previous experiments) was “does not cause evident toxic effect”. For the same molecule, the “alanine transaminase versus control group” value [6, 11] was “No significant difference”, the “blood urea nitrogen versus control group” value [6, 11] was “No significant difference” and the “liver and kidney functions” value [6, 9] was “No significant change”. The “haemorrhage / death from haemorrhage during infusion” value ([6]; rats, heparin 50 U/kg/hours, HLP 1.6-3.2 mg/kg/hours) was “did not cause haemorrhage”.
For CC[C@H](C)[C@H](NC(=O)[C@H](CCC(=O)O)NC(=O)[C@H](CCC(=O)O)NC(=O)[C@H](Cc1ccccc1)NC(=O)[C@H](CC(=O)O)NC(=O)CNC(=O)[C@H](CC(N)=O)NC(=O)CNC(=O)CNC(=O)CNC(=O)CNC(=O)[C@@H]1CCCN1C(=O)[C@H](CCCNC(=N)N)NC(=O)[C@@H]1CCCN1C(=O)[C@H](N)Cc1ccccc1)C(=O)N1CCC[C@H]1C(=O)N[C@@H](CCC(=O)O)C(=O)N[C@@H](CCC(=O)O)C(=O)N[C@@H](Cc1ccc(O)cc1)C(=O)N[C@@H](CC(C)C)C(=O)O [Hirulog-1, reference compound], the “aPTT raised over basal levels” value ([4]; 1 minute after injection of 1 mg/kg, uninjured and balloon injured rats) was 3- to 4 fold, the “aPTT (second)” value [4, 8] was 52.38 ± 2.84**+ second and the “prolongation of aPTT during infusion” value ([4]; heparin 50 U/kg/h, hirulog-1 1 mg/kg/h, 5 minutes after start of infusion) was 2- to 3 fold. The “aPTT / coagulation activity during treatment versus control or basal levels” value ([4]; rats, i.v. infusion) was “significantly elongated”, the “time after treatment beyond which aPTT was normalized” value ([4]; single injection of 1 mg/kg) was > 30 min and the “aPTT versus basal levels” value ([4]; within 15 minutes after single injection of 1 mg/kg) was “higher than corresponding basal levels”. The “tail bleeding time during treatment versus control or basal levels” value ([5]; rats) was “significantly prolonged; also recorded: significantly elongated” and the “Bleeding time” value [5, 10] was 21.88 ± 1.55 min.
In the case of Heparin [reference compound], the “aPTT / coagulation activity during treatment versus control or basal levels” value ([4]; rat, in vivo, iv) is reported as “greatly increased”.
In the case of α-thrombin, the “thrombin-induced 3H-thymidine incorporation in baboon aortic SMC” value [7] is reported as “Treatment with 20 µM HLP significantly reduced thrombin-induced increase in 3H-thymidine incorporation in SMC (p<0.05) compared to cells treated with thrombin only”.
For Thrombin, the “increase of 3H-thymidine incorporation” value (baboon aortic SMC) was 43%.
